Tests used:
[1] = system: Nc1ncnc2c1ncn2[C@@H]1O[C@H](COP(=O)(O)OP(=O)(O)OP(=O)(O)O)[C@@H](O)[C@H]1O; assay: purified protein; details: 0.3 µM heme, 3 mM MgCl2, pH 7.0, 37 °C, 0.02% DDM
[2] = molecular target: T1, CydDC (Escherichia coli, UniProt P23886+P29018, P23886:E500Q); assay: single-particle cryo-EM structure; details: Occ return apo state; both nucleotide-binding sites; turnover dataset with heme, ATP and Mg2+
T1 construct: gene cydC; full-length heterodimer, C-terminal His6 on CydC, from pTTQ18 (pcydDC) in E. coli BL21 pLysS (DE3); purified in DDM (ATPase assays) or LMNG (cryo-EM)

[3] = molecular target: T2, CydDC (Escherichia coli, UniProt P23886+P29018); assay: single-particle cryo-EM structure; assay type: binding; details: IFasym apo state, active turnover
T2 construct: gene cydC; full-length heterodimer, C-terminal His6 on CydC, from pTTQ18 (pcydDC) in E. coli BL21 pLysS (DE3); purified in DDM (ATPase assays) or LMNG (cryo-EM)
T2 sequence (P23886 whole entry): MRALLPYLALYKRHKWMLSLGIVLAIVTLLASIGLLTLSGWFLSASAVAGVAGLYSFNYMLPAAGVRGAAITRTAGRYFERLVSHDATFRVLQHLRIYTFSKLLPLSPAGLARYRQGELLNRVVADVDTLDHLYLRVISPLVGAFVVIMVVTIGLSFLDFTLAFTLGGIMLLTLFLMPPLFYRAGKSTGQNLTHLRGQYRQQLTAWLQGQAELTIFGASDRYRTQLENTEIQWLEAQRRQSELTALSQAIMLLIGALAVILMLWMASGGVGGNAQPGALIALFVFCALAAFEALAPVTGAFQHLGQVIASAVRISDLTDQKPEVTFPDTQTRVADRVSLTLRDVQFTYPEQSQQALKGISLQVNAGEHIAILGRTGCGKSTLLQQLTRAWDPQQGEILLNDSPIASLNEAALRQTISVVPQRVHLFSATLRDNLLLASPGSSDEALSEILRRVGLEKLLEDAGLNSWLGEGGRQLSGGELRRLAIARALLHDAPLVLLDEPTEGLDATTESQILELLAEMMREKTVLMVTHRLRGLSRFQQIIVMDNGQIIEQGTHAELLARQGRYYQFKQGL
T2 sequence (P29018 whole entry): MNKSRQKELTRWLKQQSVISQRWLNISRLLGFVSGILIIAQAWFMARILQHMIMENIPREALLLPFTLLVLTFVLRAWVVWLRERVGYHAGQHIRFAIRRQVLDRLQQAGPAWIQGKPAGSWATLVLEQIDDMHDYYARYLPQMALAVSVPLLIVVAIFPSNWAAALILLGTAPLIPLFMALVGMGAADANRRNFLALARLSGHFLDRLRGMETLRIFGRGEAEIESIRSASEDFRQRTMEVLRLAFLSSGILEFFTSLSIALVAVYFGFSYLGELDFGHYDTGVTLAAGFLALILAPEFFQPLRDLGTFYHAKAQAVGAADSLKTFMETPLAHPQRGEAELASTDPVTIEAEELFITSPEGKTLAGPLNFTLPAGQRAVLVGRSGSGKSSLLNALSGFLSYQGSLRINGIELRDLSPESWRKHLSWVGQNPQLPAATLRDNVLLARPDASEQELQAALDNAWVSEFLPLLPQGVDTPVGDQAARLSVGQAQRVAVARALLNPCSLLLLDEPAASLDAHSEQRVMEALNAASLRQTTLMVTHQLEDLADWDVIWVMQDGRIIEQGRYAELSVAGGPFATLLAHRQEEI

T1 sequence (P23886 whole entry E500Q): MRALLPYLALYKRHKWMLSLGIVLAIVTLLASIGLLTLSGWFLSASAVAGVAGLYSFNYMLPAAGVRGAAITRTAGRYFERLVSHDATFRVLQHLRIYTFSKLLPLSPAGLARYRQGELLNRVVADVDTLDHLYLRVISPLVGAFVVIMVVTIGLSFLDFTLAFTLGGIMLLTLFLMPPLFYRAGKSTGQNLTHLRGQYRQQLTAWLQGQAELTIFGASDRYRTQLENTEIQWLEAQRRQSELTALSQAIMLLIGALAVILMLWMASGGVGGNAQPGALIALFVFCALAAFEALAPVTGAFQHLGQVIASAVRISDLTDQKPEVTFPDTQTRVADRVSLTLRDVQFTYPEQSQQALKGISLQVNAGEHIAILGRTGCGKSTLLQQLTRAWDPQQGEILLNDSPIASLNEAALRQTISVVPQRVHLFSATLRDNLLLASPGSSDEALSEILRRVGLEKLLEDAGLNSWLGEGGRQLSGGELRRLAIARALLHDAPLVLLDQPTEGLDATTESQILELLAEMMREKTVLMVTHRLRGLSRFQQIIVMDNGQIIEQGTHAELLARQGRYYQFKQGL
T1 sequence (P29018 whole entry): as the sequence (P29018 whole entry) above

Question: For CydDC (Escherichia coli K-12), which Km [1] is on record?
Answer: 91.9 ± 9.7 µM

Question: What does the source list for `Nc1ncnc2c1ncn2[C@@H]1O[C@H](COP(=O)(O)OP(=O)(O)OP(=O)(O)O)[C@@H](O)[C@H]1O` [ATP]?
Answer: single-particle cryo-EM structure [2]: The left panel shows a close-up view of ATP bound to NBS^D; single-particle cryo-EM structure ([3]; degenerate site NBS of CydD): NBS^D conformations in the Occreturnapo (ATP), IFasymapo (ATP)

Question: `Nc1ncnc2c1ncn2[C@@H]1O[C@H](COP(=O)(O)OP(=O)(O)O)[C@@H](O)[C@H]1O` [ADP] was tested. Which “single-particle cryo-EM structure” value ([3]; site NBS of CydC, with Pi) did it give?
Answer: obtained from the turnover dataset of CydDC to ADP and Pi

From article PMC10374445 (Nature Chemical Biology, 2023)
